Reference: publication PMC8704707 (Pharmaceuticals, 2021)
Values after ≈ are worked out from the molar mass of the structure shown. Values joined by “and” are separate entries in the source; they are usually repeats but may differ in a detail not shown here. Equal values may be shown once. Read-outs that look alike come from different tables or passages of the source.

How the values were obtained:
[1] = target: AChE from electric eel (EeAChE) (Electrophorus electricus, UniProt O42275); test: biochemical; assay type: biochemical
[2] = target: BuChE from equine serum (EqBuChE) (Equus caballus, UniProt P81908); test: biochemical
HepG2 cells = details: range of tested concentrations up to 500 µM
Procedure: Cytotoxicity of the tested compounds was measured using the standard hepatic cell line HepG2. The used CellTiter 96® assay is based on the reduction of tetrazolium dye (MTS) in living cells to formazan, which is then determined colorimetrically.

[3] = tested on: Acinetobacter baumannii ATCC 19606; test: Antibacterial microdilution broth method (EUCAST); assay type: cell-based
[4] = tested on: Staphylococcus aureus ATCC 29213; test: Antibacterial microdilution broth method (EUCAST); assay type: cell-based
[5] = tested on: Escherichia coli ATCC 25922; test: Antibacterial microdilution broth method (EUCAST); assay type: cell-based
[6] = tested on: Klebsiella pneumoniae ATCC 10031; details: for MIC KP 24 h: 24 h incubation; for MIC KP 48 h: 48 h incubation
[7] = tested on: methicillin-resistant Staphylococcus aureus ATCC 43300; test: Antibacterial microdilution broth method (EUCAST); assay type: cell-based; details: ATCC 43300 / MRSA
[8] = tested on: Staphylococcus epidermidis ATCC 12228; test: Antibacterial microdilution broth method (EUCAST); assay type: cell-based
[9] = tested on: Pseudomonas aeruginosa ATCC 27853; test: Antibacterial microdilution broth method (EUCAST); assay type: cell-based
[10] = tested on: Enterococcus faecalis ATCC 29212; test: Antibacterial microdilution broth method (EUCAST); assay type: cell-based
[11] = tested on: eight human pathogenic fungi; test: Antifungal microdilution broth method, whole panel; assay type: cell-based; details: not reported in Table 2, read-out: MIC, all fungal strains tested
[12] = tested on: four Gram-positive and four Gram-negative bacterial strains; test: Antibacterial microdilution broth method, whole panel; assay type: cell-based; details: read-out: MIC, all bacterial strains tested
[13] = tested on: Candida parapsilosis ATCC 22019; test: microbe, parasite or virus in culture; assay type: cell-based; details: Lodderomyces parapsilosis
[14] = tested on: Candida tropicalis ATCC 750; test: microbe, parasite or virus in culture; assay type: cell-based
Candida krusei ATCC 6258 = test: microbe, parasite or virus in culture; assay type: cell-based; details: Pichia kudriavzevii
[15] = tested on: Candida albicans ATCC 24443; test: microbe, parasite or virus in culture; assay type: cell-based
[16] = tested on: Trichophyton interdigitale ATCC 9533; test: microbe, parasite or virus in culture; assay type: cell-based
[17] = mean ± SD, n = three independent experiments, BTCh 40 µM, read-out: IC50 BuChE
[18] = ATCC19606, 24 h, read-out: MIC ACI 24 h
[19] = ATCC19606, 48 h, read-out: MIC ACI 48 h
[20] = ATCC29213, 24 h, read-out: MIC SA 24 h
[21] = ATCC29213, 48 h, read-out: MIC SA 48 h
[22] = ATCC25922, 24 h, read-out: MIC EC 24 h
[23] = ATCC25922, 48 h, read-out: MIC EC 48 h
[24] = ATCC12228, 24 h, read-out: MIC SE 24 h
[25] = ATCC12228, 48 h, read-out: MIC SE 48 h
[26] = ATCC27853, 24 h, read-out: MIC PA 24 h
[27] = ATCC27853, 48 h, read-out: MIC PA 48 h
[28] = ATCC29212, 24 h, read-out: MIC EF 24 h
[29] = ATCC29212, 48 h, read-out: MIC EF 48 h
[30] = mean ± SD, n = three independent experiments, ATCh 40 µM, read-out: IC50 AChE

Sequence of BuChE from equine serum (EqBuChE) (P81908 whole entry): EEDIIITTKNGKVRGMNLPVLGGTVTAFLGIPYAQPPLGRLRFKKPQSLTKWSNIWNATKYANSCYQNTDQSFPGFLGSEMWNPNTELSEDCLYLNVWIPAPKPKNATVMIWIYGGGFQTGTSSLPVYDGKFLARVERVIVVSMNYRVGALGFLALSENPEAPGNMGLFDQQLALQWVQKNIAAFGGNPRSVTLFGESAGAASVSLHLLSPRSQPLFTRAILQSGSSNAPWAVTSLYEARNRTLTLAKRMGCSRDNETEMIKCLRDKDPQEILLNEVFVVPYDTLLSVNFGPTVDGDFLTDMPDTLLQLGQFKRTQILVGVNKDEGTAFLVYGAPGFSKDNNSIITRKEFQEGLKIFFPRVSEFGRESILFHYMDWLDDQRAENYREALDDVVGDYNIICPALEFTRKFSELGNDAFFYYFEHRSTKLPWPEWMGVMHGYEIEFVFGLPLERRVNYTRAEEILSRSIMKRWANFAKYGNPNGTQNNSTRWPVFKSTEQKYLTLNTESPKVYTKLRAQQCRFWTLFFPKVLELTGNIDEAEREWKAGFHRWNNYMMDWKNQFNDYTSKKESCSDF
Sequence of AChE from electric eel (EeAChE) (O42275 24-633): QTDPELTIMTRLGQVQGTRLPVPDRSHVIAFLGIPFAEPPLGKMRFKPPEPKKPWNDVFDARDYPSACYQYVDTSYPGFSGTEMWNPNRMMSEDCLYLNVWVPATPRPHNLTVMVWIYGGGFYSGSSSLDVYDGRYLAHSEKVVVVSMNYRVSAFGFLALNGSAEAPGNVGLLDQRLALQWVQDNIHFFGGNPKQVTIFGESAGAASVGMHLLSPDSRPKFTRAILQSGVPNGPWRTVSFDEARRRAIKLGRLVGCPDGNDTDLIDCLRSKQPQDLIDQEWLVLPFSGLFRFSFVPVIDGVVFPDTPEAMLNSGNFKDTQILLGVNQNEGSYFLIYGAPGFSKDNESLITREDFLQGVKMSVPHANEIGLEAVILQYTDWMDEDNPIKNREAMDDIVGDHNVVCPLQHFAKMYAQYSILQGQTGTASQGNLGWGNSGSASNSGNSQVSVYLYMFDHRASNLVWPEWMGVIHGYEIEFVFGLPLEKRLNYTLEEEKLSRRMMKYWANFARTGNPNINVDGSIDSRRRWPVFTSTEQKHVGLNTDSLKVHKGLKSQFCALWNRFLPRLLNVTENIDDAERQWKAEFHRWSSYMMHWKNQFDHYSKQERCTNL

| SMILES | IC50 [1] [µM] | Selectivity AChE/BuChE [1] | IC50 [2, 17] | MIC [3, 18] [µM] | MIC [3, 19] [µM] | MIC [4, 20] [µM] | MIC [4, 21] [µM] | MIC [5, 22] [µM] | MIC [5, 23] [µM] | MIC KP 24 h [6] [µM] | MIC KP 48 h [6] [µM] | MIC ([7]; 24 h, read-out: MIC MRSA 24 h) [µM] | MIC ([7]; 48 h, read-out: MIC MRSA 48 h) [µM] | MIC [8, 24] [µM] | MIC [8, 25] [µM] | MIC [9, 26] [µM] | MIC [9, 27] [µM] | MIC [10, 28] [µM] | MIC [10, 29] [µM] | IC50 [1, 30] [µM] | further results |
| --- | --- | --- | --- | --- | --- | --- | --- | --- | --- | --- | --- | --- | --- | --- | --- | --- | --- | --- | --- | --- | --- |
| N=C(NN)NN [1,3-diaminoguanidine, reference compound] | 41.71 ± 0.23 | 0.15 | 283 ± 8.94 µM |  |  |  |  |  |  |  |  |  |  |  |  |  |  |  |  |  | Cytotoxicity in HepG2 in words (HepG2 cells): no significant cytotoxicity |
| [H]/N=C(\N)NN=Cc1ccccc1 [Compound 1a, (E)-2-Benzylidenehydrazine-1-carboximidamide] | 36.19 ± 0.1 | 0.81 |  | > 500 | > 500 | 500 (≈ 81.1 µg/mL) | 500 (≈ 81.1 µg/mL) | > 500 | > 500 | >500 | >500 | > 500 | > 500 | 250 (≈ 40.5 µg/mL) | 250 (≈ 40.5 µg/mL) | > 500 | > 500 | > 500 | > 500 |  | IC50 ([2]; IC50 BuChE): 44.9 ± 0.54 µM; MIC [11]: ≥ 500 µM |
| [H]/N=C(\N)NN=Cc1ccc(Cl)cc1 [Compound 1d, (E)-2-(4-Chlorobenzylidene)hydrazine-1-carboximidamide] | 45.2 ± 1.6 | 3.25 | < 20 µM and 13.9 µM |  |  |  |  |  |  |  |  |  |  |  |  |  |  |  |  |  | MIC [12]: ≥ 500 µM |
| [H]/N=C(\N)NN=Cc1cccc(Cl)c1O [Compound 1e, (E)-2-(3-Chloro-2-hydroxybenzylidene)hydrazine-1-carboximidamide] |  |  | < 20 µM and 5.57 µM |  |  |  |  |  |  |  |  |  |  |  |  |  |  |  |  | 46.2 ± 2.26 | MIC [12]: ≥ 500 µM |
| [H]/N=C(\N)NN=Cc1cc(Cl)cc(Cl)c1O [Compound 1j, (E)-2-(3,5-Dichloro-2-hydroxybenzylidene)hydrazine-1-carboximidamide] |  | 0.66 | 61.7 ± 4.33 µM | 500 (≈ 124 µg/mL) | 500 (≈ 124 µg/mL) | 250 (≈ 61.8 µg/mL) | 250 (≈ 61.8 µg/mL) | 500 (≈ 124 µg/mL) | 500 (≈ 124 µg/mL) | 500 (≈ 124 µg/mL) | 500 (≈ 124 µg/mL) | 250 (≈ 61.8 µg/mL) | 250 (≈ 61.8 µg/mL) | 250 (≈ 61.8 µg/mL) | 250 (≈ 61.8 µg/mL) | 250 (≈ 61.8 µg/mL) | 250 (≈ 61.8 µg/mL) | 250 (≈ 61.8 µg/mL) | 250 (≈ 61.8 µg/mL) | 40.8 ± 0.8 | MIC [11]: ≥ 500 µM |
| [H]/N=C(\N)NN=Cc1ccc([N+](=O)[O-])s1 [Compound 1o, (E)-2-[(5-Nitrothiophen-2-yl)methylene]hydrazine-1-carboximidamide] |  | 0.11 | 204 to 286 µM and 286 µM | 125 (≈ 26.7 µg/mL) | 125 (≈ 26.7 µg/mL) | 125 (≈ 26.7 µg/mL) | 250 (≈ 53.3 µg/mL) | 62.5 (≈ 13.3 µg/mL) | 62.5 (≈ 13.3 µg/mL) | 125 (≈ 26.7 µg/mL) | 125 (≈ 26.7 µg/mL) | 125 (≈ 26.7 µg/mL) | 250 (≈ 53.3 µg/mL) | 62.5 (≈ 13.3 µg/mL) | 62.5 (≈ 13.3 µg/mL) | 500 (≈ 107 µg/mL) | 500 (≈ 107 µg/mL) | 250 (≈ 53.3 µg/mL) | 500 (≈ 107 µg/mL) | 31.7 ± 1.34 | MIC ([13]; ATCC22019, 24 h, read-out: MIC CP 24 h): > 500 µM; MIC ([13]; ATCC22019, 48 h, read-out: MIC CP 48 h): > 500 µM; MIC ([14]; ATCC750, 24 h, read-out: MIC CT 24 h): > 500 µM; MIC ([14]; ATCC750, 48 h, read-out: MIC CT 48 h): > 500 µM; MIC (Candida krusei ATCC 6258; ATCC6258, 24 h, read-out: MIC CK 24 h): 500 µM (≈ 107 µg/mL); MIC (Candida krusei ATCC 6258; ATCC6258, 48 h, read-out: MIC CK 48 h): 500 µM (≈ 107 µg/mL); MIC ([15]; ATCC24443, 24 h, read-out: MIC CA 24 h): > 500 µM; MIC ([15]; ATCC24443, 48 h, read-out: MIC CA 48 h): > 500 µM; MIC ([16]; ATCC9533, 72 h, read-out: MIC TI 72 h): 250 µM (≈ 53.3 µg/mL); MIC ([16]; ATCC9533, 120 h, read-out: MIC TI 120 h): 250 µM (≈ 53.3 µg/mL) |
| [H]/N=C(\N)NN=Cc1cc(I)c(O)c(I)c1 [Compound 2b, (E)-2-(4-Hydroxy-3,5-diiodobenzylidene)hydrazine-1-carboximidamide] |  | 0.87 | 46.28 ± 0.29 µM | > 500 | > 500 | 500 (≈ 215 µg/mL) | 500 (≈ 215 µg/mL) | 500 (≈ 215 µg/mL) | 500 (≈ 215 µg/mL) | 250 (≈ 107 µg/mL) | 250 (≈ 107 µg/mL) | 500 (≈ 215 µg/mL) | 500 (≈ 215 µg/mL) | 250 (≈ 107 µg/mL) | 500 (≈ 215 µg/mL) | > 500 | > 500 | 500 (≈ 215 µg/mL) | 500 (≈ 215 µg/mL) | 40.3 ± 0.85 | MIC [11]: ≥ 500 µM |
